In US20080207738A1, “DRUG COMBINATIONS TO TREAT DRUG RESISTANT TUMORS” (priority 2007, published 2008):

How the values were obtained:
Solubility in water = format: physicochemical
From the text: In one embodiment, CCcompound104, CCcompound26 and EA may be administered orally. The two CC compounds are water-soluble, while EA is first dissolved in absolute ethanol and diluted in water or a suitable physiologically compatible liquid solvent. In one embodiment of the invention, the CC compounds and EA are in the form of a tablet, gel capsule, a liquid, or the like. In each case, the compounds are mixed with one or more carriers chosen by one having ordinary skill in the art to best suit the goal of treatment. In addition to the active compounds, the tablet or gel may contain any component that is presently used in the pharmaceutical field to ensure firmness, stability, solubility and appropriate taste. Any additional component of the tablet or gel will be chemically inert; i.e., it will not participate in a chemical reaction with the active compounds or the other additives. Each compound may be prepared for oral consumption separately, or the tablet, gel capsule or liquid may contain any of the two components or all three components. Tablets containing 25 mg or 50 mg of EA can be purchased from Merck.

parent L5178 cells = experiment: Rhodamine 123 cellular content in parent L5178 cells (flow cytometry); format: cell-based, mouse; details: data not shown
Experimental: The L5178 mouse T cell lymphoma parent cell line and its MDR1 expressing subline (L5178/MDR1) were used. […] The cells were adjusted to a concentration of 2×10^6 cells per ml, then resuspended in serum-free McCoy's 5A medium and 0.5-ml portions distributed into small (1.2-ml) Eppendorf centrifuge tubes. After adding various concentrations of test compounds as listed below in Table 2, the samples were incubated for 10 min at room temperature (22° C.). […] After centrifugation (450 g, 10 min) the pelleted cells were washed twice with PBS and resuspended in 0.5-ml of PBS for cytometry. The fluorescence intensity of the cell population was measured by flow cytometry using Beckton Dickinson's FACScan instrument.
The percentage mean fluorescence intensity (FL-1) was calculated for the treated parental and MDR1 cell lines as compared with that of untreated cells. […] Other values measured are Forward scattered count (FSC) and site scattered count (SSC).

C[Si](C)(C)COc1ccc(C(=O)OCCN2CCN(CCCOC(=O)C3c4ccccc4Oc4ccccc43)CC2)cc1.Cl.Cl [CCcompound104]
solubility in water (Solubility in water): water-soluble | effect on the cellular content of Rhodamine 123 (parent L5178 cells): no detectable effects
